Data taken from patent US20050171206A1, “Therapeutical use” (priority 2004, published 2005).
Where “and” joins values, the source holds several entries; their conditions need not be identical. Identical values can stand only once.

Experiments:
[1] = i.v. administration, non-human primates; cited from earlier work
[2] = tested on: SMN full length (SMN-fl) transcripts (SMN2 gene expression) in leukocytes; test: SMN full length transcripts in leukocytes by real-time RT-PCR during one week of oral triButyrate (Example 1); type: in vivo, human
Experimental: (§1) Six SMA patients (P1-P6) and three parents (M2, M3, F6) were enrolled for a pilot trial. Four patients had SMA type II (P1-P4). P1 is a child who had lost the ability to sit unaided. P3 is […] and P4 and P5 are both […]. Two patients (P5 and P6) had SMA type III. The trial was approved by the Ethical Committee of the Catholic University. A written informed consent was obtained from all patients/parents. triButyrate®, the sodium salt of phenylbutyrate was administered at 500 mg/kg/d (maximum dose 19 g/d), divided in 6 doses(every 4 hours) for 7 days. Blood samples were taken from patients and parents on day 0 (T0, baseline) and on days 1-4 (T1-T4) and 7 (T7) of drug administration, and from 5 healthy untreated controls on 5 consecutive days (T0-T4). Total RNA was extracted by Trizol from leukocytes immediately after hypotonic lysis of samples.
SMN full length (SMN-fl) transcripts were measured by realtime RT-PCR using ABI-PRISM 7700 Sequence Detector System (Applied Biosystems) as described elsewhere. (Andreassi C, Angelozzi C, Tiziano F D, Vitali T, De Vincenzi E, Boninsegna A, Villanova M, Bertini E, Pini A, Neri G, Brahe C. Eur. J. Hum. Genet. 2004; 12:59-65) Transcripts were amplified at least twice in triplicate or quadruplicate. SMN transcript levels were calculated by comparing SMN versus glyceraldehyde-3-phosphate dehydrogenase transcripts, whose expression is not affected by triButyrate®. (Andreassi C, Angelozzi C, Tiziano F D, Vitali T, De Vincenzi E, Boninsegna A, Villanova M, Bertini E, Pini A, Neri G, Brahe C. Eur. J. Hum. Genet. 2004; 12:59-65) The relative amounts of SMN-fl transcripts in samples obtained from treated patients/parents and untreated controls were normalized versus those of T0.
F of Fisher, ANOVA and T of Student for independent variables tests were performed to assess statistical significance by using Winstat 4.01 and SPSS 10.0.1 for Windows software. P values <0.05 were accepted as significant.

[3] = tested on: SMA patients and parents; test: Clinical observations and tolerability, pilot trial (Example 1); type: in vivo, human
Experimental: as §1
These subjective improvements prompted us to perform myometry in the other four patients on day 0 and 7 (table 1.2).

[4] = tested on: children with SMA II older than 5 years (muscle strength); test: Myometry, hand held electronic myometer (Example 2); type: in vivo, human; design: myometry: unit not given here; conditions: for myometry: individual children
Experimental: The sodium salt of phenylbutyrate (triButyrate®) was administered orally in powder or tablets at 500 mg/kg/d (maximum dose 19 g/d), divided in 5 doses (every 4 hours except for an 8 hours night interval). An intermittent schedule (7 days on and 7 days off) was arbitrarily chosen, similarly to a previously reported schedule for treatment of sickle cell disease. (Atweh G F, Sutton M, Nassif I, Boosalis V, Dover G J, Wallen-stein S, Wright E, McMahon L, Stamatoyannopoulos G, Faller D V, Perrine S P Blood.1999;93:1790-97.) When this dosage was tolerated, patients were advised to continue for 9 weeks (5 weeks on and 4 weeks off).
The assessment consisted of a detailed clinical physiotherapy evaluation including the Hammersmith functional motor scale and, in children older than 5 years, assessment of muscle strength and of forced vital capacity.
(§2) Measurements lasted 3 to 5 seconds. The scores were grouped in a leg mega score and arm megascore by adding the best readings for each individual muscle within the subgroup and subdividing this score by the number of muscles examined. Intra-observer variation performed before the implementation of the study was less than 5%. Both myometry and measurement of joint contractures were performed by the same physiotherapist.

[5] = cited from earlier work
[6] = tested on: children with SMA II; test: Joint contractures (Example 2); type: in vivo, human; conditions: between baseline and 9 weeks
Experimental: as §2

[7] = according to recent publications

O=C([O-])CCCc1ccccc1.[Na+] [triButyrate®, Sodium 4-phenylbutyrate]
penetration into the cerebrospinal fluid (CSF) [1]: penetrates into the cerebrospinal fluid | relative SMN-fl transcript levels during administration compared to baseline ([2]; all patients, one or more blood samples): significant increase | Percent SMN-fl transcripts variation versus T0, T1 mean(+-SD) ([2]; day 1 of 500 mg/kg/d oral, leukocytes, individual patients P1-P6 and parents M2, M3, F6, 500 mg/kg/day): +53 (0.1) % and −1 (0.0) % and +54 (0.2) % and +68 (0.0) % and +65 (0.1) % and +117 (1.0) % and +280 (0.7) % and +73 (0.0) % and +432 (0.2) % | Percent SMN-fl transcripts variation versus T0, T2 mean(+-SD) ([2]; day 2 of 500 mg/kg/d oral, leukocytes, individual patients/parents, 500 mg/kg/day): +184 (0.6) % and +35 (0.3) % and +25 (0.1) % and +14 (0.0) % and −2 (0.0) % and +96 (0.1) % and +27 (0.0) % and +63 (0.1) % | Percent SMN-fl transcripts variation versus T0, T3 mean(+-SD) ([2]; day 3 of 500 mg/kg/d oral, leukocytes, individual patients/parents, 500 mg/kg/day): +7 (0.2) % and +131 (0.5) % and +116 (0.0) % and −37 (0.0) % and +197 (0.7) % and −15 (0.1) % and +21 (0.1) % and +82 (0.2) % | Percent SMN-fl transcripts variation versus T0, T4 mean(+-SD) ([2]; day 4 of 500 mg/kg/d oral, leukocytes, individual patients/parents, 500 mg/kg/day): +120 (0.4) % and −3 (0.0) % and +21 (0.0) % and +156 (0.2) % and +363 (0.6) % and +387 (0.9) % and −18 (0.2) % and +129 (0.3) % and +190 (0.5) % | Percent SMN-fl transcripts variation versus T0, T7 mean(+-SD) ([2]; day 7 of 500 mg/kg/d oral, leukocytes, individual patients/parents, 500 mg/kg/day): +827 (1.9) % and +155 (0.1) % and −15 (0.4) % and +190 (0.2) % and +71 (0.3) % and +333 (0.5) % and +56 (0.2) % | increase in SMN-fl transcripts in at least one blood sample during treatment ([2]; in all patients): more than 100% | adverse events ([3]; P6 on day 2 at 18 g/d, resolved after reducing to 12 g/d): dizziness and tinnitus | tolerability ([3]; all subjects, 500 mg/kg/d for 7 days): tolerated the drug well except for P6 | Full blood counts and liver function tests ([3]; all subjects, days 0 and 7): did not show significant changes | head and trunk control ([3]; patient P1, severe type II phenotype): slight improvement in head and trunk control | hand tremor ([3]; patient P5 (type III), day 3 of treatment, later complete absence lasting 4 days after end of trial): reduction of hand tremor | myometry, patients with increase ([4]; 4 patients older than 5 years): clear increase in 3 of the 4 | myometry ([4]; T1, 3 weeks): 0.18 and 0.41 and 0.09 and 0.38 | myometry ([4]; T2, 9 weeks): 0.17 and 0.45 and 0.09 and 0.46 | metabolised to butyrate [5, 7]: ~25% | metabolised to sodium phenylacetate [5, 7]: approximately 75% | half-life ([5]; in vivo): 48 to 60 min | major joint's ranges (hips, knees, hamstrings, tendon Achilles and elbows) [6]: no difference
